Experimental data as given in patent publication US11147272B2, “Pyridone compounds and agricultural and horticultural fungicides comprising the same as active ingredients” (MITSUI CHEMICALS AGRO, INC., priority 2017, dated 2021).

How the values were obtained:
Plasmopara viticola = test: Test Example G: Downy mildew on vine; settings: Downy mildew on vine; 250 ppm spray, 7 to 10 days after inoculation
Puccinia recondita = test: Test Example E: Brown rust on wheat; format: in vivo; settings: Brown rust on wheat; control value class
[1] = system: Blumeria graminis f. sp. hordei; test: Test Example D: Powdery mildew on barley; settings: Powdery mildew on barley; control value class
[2] = system: Colletotrichum orbiculare; test: Test Example H: Anthracnose on cucumber; settings: Anthracnose on cucumber; 250 ppm spray, 6 to 10 days after inoculation
Botrytis cinerea = test: Test Example B: Gray mold on tomato; settings: Gray mold on tomato; control value class
Magnaporthe grisea = test: whole plant or invertebrate; format: in vivo; settings: Blast on rice; control value class
Alternaia brassicicola = test: Test Example C: Alternaria sooty spot on cabbage; format: in vivo; settings: Alternaria sooty spot on cabbage; control value class
Source text: Seeds of a test plant (cabbage variety: Shikidori) were planted and cultivated until the cotyledons extended.
<Control Value> Control value=100{1−(n/3)}

Phytophthora infestans = test: whole plant or invertebrate; format: in vivo; settings: Late blight on tomato; control value class

| SMILES | Test G control value (Plasmopara viticola) | Test E control value (Puccinia recondita) | Test D control value [1] | Test H control value [2] | Test B control value (Botrytis cinerea) | Test A control value (Magnaporthe grisea) | Test C control value (Alternaia brassicicola) | Test F control value (Phytophthora infestans) |
| --- | --- | --- | --- | --- | --- | --- | --- | --- |
| CCn1c(-c2ccc(F)cc2)c(C(C)(F)C(C)C)cc(Cl)c1=O (stereo not shown) [compound 217] | L (50% or less control value) | H (more than 50% control value) | H (more than 50% control value) | H (more than 50% control value) | H (more than 50% control value) | H (more than 50% control value) | H (more than 50% control value) | L (50% or less control value) |
| CCOc1cc(F)c(-c2c(C(=O)C(C)C)cc(Cl)c(=O)n2CC)c(F)c1 [compound 218] | H (more than 50% control value) | H (more than 50% control value) | H (more than 50% control value) | H (more than 50% control value) | H (more than 50% control value) | H (more than 50% control value) | H (more than 50% control value) | L (50% or less control value) |
| CCn1c(-c2ccc(F)cc2Cl)c(C2CCCC2)ccc1=O [compound 219] | L (50% or less control value) | H (more than 50% control value) | H (more than 50% control value) | L (50% or less control value) | H (more than 50% control value) | H (more than 50% control value) | H (more than 50% control value) | L (50% or less control value) |
| CCn1c(-c2ccc(F)cc2Cl)c(C2CCCC2)cc(Cl)c1=O [compound 220] | H (more than 50% control value) | H (more than 50% control value) | H (more than 50% control value) | H (more than 50% control value) | H (more than 50% control value) | H (more than 50% control value) | H (more than 50% control value) | L (50% or less control value) |
| CCn1c(-c2ccc(F)cc2Cl)c(C2CCCC2)cc(Br)c1=O [compound 221] | L (50% or less control value) | H (more than 50% control value) | H (more than 50% control value) | L (50% or less control value) | H (more than 50% control value) | H (more than 50% control value) | H (more than 50% control value) | L (50% or less control value) |
| CCn1c(-c2ccc(OC)cc2)c(C(=O)C(C)C)cc(Cl)c1=O [compound 222] | L (50% or less control value) | H (more than 50% control value) | H (more than 50% control value) | L (50% or less control value) | H (more than 50% control value) | L (50% or less control value) | H (more than 50% control value) | L (50% or less control value) |
| CCn1c(-c2ccc(OC)cc2)c(C(C)(O)C(C)C)cc(Cl)c1=O (stereo not shown) [compound 223] | L (50% or less control value) | H (more than 50% control value) | L (50% or less control value) | L (50% or less control value) | H (more than 50% control value) | L (50% or less control value) | H (more than 50% control value) | L (50% or less control value) |
| CCn1c(-c2ccc(OC)cc2)c(C(C)(OC)C(C)C)cc(Cl)c1=O (stereo not shown) [compound 224] | L (50% or less control value) | H (more than 50% control value) | L (50% or less control value) | L (50% or less control value) | H (more than 50% control value) | L (50% or less control value) | L (50% or less control value) | L (50% or less control value) |
| CCn1c(-c2ccc(Br)cc2Cl)c(CC(C)C)ccc1=O [compound 225] | L (50% or less control value) | H (more than 50% control value) | H (more than 50% control value) | L (50% or less control value) | H (more than 50% control value) | L (50% or less control value) | H (more than 50% control value) | L (50% or less control value) |
| CCOc1cc(F)c(-c2c(C(C)(O)C(C)C)cc(Cl)c(=O)n2CC)c(F)c1 (stereo not shown) [compound 226] | L (50% or less control value) | H (more than 50% control value) | L (50% or less control value) | H (more than 50% control value) | H (more than 50% control value) | H (more than 50% control value) | H (more than 50% control value) | L (50% or less control value) |
| CCOc1cc(F)c(-c2c(C(C)(OC)C(C)C)cc(Cl)c(=O)n2CC)c(F)c1 (stereo not shown) [compound 227] | H (more than 50% control value) | H (more than 50% control value) | H (more than 50% control value) | H (more than 50% control value) | H (more than 50% control value) | H (more than 50% control value) | H (more than 50% control value) | L (50% or less control value) |
| CCOC(C)(c1cc(Cl)c(=O)n(CC)c1-c1c(F)cc(F)cc1F)C(C)C (stereo not shown) [compound 228] | H (more than 50% control value) | H (more than 50% control value) | H (more than 50% control value) | H (more than 50% control value) | H (more than 50% control value) | H (more than 50% control value) | H (more than 50% control value) | L (50% or less control value) |
| CCCOC(C)(c1cc(Cl)c(=O)n(CC)c1-c1c(F)cc(F)cc1F)C(C)C (stereo not shown) [compound 229] | H (more than 50% control value) | H (more than 50% control value) | H (more than 50% control value) | H (more than 50% control value) | H (more than 50% control value) | H (more than 50% control value) | H (more than 50% control value) | L (50% or less control value) |
| CCn1c(-c2c(F)cc(F)cc2F)c(C#N)cc(Cl)c1=O [compound 230] | H (more than 50% control value) | L (50% or less control value) | L (50% or less control value) | L (50% or less control value) | L (50% or less control value) | L (50% or less control value) | L (50% or less control value) | L (50% or less control value) |
| CCn1c(-c2c(F)cc(F)cc2F)c(C(O)C2CCCC2)cc(Cl)c1=O (stereo not shown) [compound 231] | H (more than 50% control value) | H (more than 50% control value) | H (more than 50% control value) | H (more than 50% control value) | H (more than 50% control value) | H (more than 50% control value) | H (more than 50% control value) | H (more than 50% control value) |
| CCn1c(-c2c(F)cc(F)cc2F)c(C(=O)C2CCCC2)cc(Cl)c1=O [compound 232] | L (50% or less control value) | H (more than 50% control value) | H (more than 50% control value) | L (50% or less control value) | H (more than 50% control value) | H (more than 50% control value) | H (more than 50% control value) | L (50% or less control value) |
| CCn1c(-c2ccc(C#N)cc2)c(C(O)C(C)C)cc(Cl)c1=O (stereo not shown) [compound 233] | L (50% or less control value) | L (50% or less control value) | L (50% or less control value) | L (50% or less control value) | L (50% or less control value) | L (50% or less control value) | H (more than 50% control value) | L (50% or less control value) |
